Measured values as given in ChEMBL document CHEMBL1146185, “P2-P4 macrocyclic inhibitors of hepatitis C virus NS3-4A serine protease” (Bioorg Med Chem Lett, 2006).

Molecular target: NS3 (Hepatitis C virus, UniProt A3EZJ3)
Assay: Binding affinity to HCV NS3 protease
Set-up: species or system Hepacivirus hominis

NS3, sequence (A3EZJ3 whole entry): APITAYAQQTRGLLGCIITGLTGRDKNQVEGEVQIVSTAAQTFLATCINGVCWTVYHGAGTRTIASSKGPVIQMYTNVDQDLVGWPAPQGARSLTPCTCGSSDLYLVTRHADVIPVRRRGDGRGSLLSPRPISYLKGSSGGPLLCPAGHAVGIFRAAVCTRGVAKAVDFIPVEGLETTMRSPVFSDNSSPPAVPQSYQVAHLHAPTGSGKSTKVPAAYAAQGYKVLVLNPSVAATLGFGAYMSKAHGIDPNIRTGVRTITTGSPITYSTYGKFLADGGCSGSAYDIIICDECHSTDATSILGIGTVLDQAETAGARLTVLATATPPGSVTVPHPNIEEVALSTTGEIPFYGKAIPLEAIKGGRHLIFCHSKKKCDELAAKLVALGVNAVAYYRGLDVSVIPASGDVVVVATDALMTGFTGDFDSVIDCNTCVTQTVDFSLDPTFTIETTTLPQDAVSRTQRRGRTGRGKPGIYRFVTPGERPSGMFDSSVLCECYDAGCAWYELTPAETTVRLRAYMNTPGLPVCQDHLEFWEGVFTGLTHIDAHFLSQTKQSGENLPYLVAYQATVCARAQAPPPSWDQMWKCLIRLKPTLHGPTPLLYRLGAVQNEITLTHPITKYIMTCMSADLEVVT

| Compound | Ki [nM] |
| --- | --- |
| CCCC(NC(=O)[C@@H]1C[C@@H]2CN1C(=O)[C@H](C1CCCCC1)NC(=O)Cc1ccc(C)c(c1)OCCCO2)C(=O)C(=O)NCC(=O)N[C@H](C(=O)N(C)C)c1ccccc1 (some centres not stated) | 12 |
| CCCC(NC(=O)[C@@H]1C[C@@H]2CN1C(=O)[C@H]([C@H]1CC[C@H](C(=O)O)CC1)NC(=O)Cc1cccc(c1)OCCCO2)C(=O)C(=O)NCC(=O)N[C@H](C(=O)N(C)C)c1ccccc1 (some centres not stated) | 19 |
| CCCC(NC(=O)[C@@H]1C[C@@H]2CN1C(=O)[C@H](C(C)(C)C)NC(=O)Oc1cccc(c1)OCCCO2)C(=O)C(=O)NCC(=O)N[C@H](C(=O)N(C)C)c1ccccc1 (some centres not stated) | 200 |
| CCCC(NC(=O)[C@@H]1C[C@@H]2CN1C(=O)[C@H](C1CCCCC1)NC(=O)Cc1cc(C)cc(c1)OCCCO2)C(=O)C(=O)NCC(=O)N[C@H](C(=O)N(C)C)c1ccccc1 (some centres not stated) | 30 |
| CCCC(NC(=O)[C@@H]1C[C@@H]2CN1C(=O)[C@H](C1CCCCC1)NC(=O)N(C)c1cccc(c1)OCCCO2)C(=O)C(=O)NCC(=O)N[C@H](C(=O)N(C)C)c1ccccc1 (some centres not stated) | 90 |
| CCCC(NC(=O)[C@@H]1C[C@@H]2CN1C(=O)[C@H](C1CCCCC1)NC(=O)N(C)Cc1cccc(c1)OCCCO2)C(=O)C(=O)NCC(=O)N[C@H](C(=O)N(C)C)c1ccccc1 (some centres not stated) | 26 |
| CCCC(NC(=O)[C@@H]1C[C@@H]2CN1C(=O)[C@H](C1CCCCC1)NC(=O)Cc1cc(OC)cc(c1)OCCCO2)C(=O)C(=O)NCC(=O)N[C@H](C(=O)N(C)C)c1ccccc1 (some centres not stated) | 32 |
| CCCC(NC(=O)[C@@H]1C[C@@H]2CN1C(=O)[C@H](C1CCCC(C(=O)O)C1)NC(=O)Cc1cccc(c1)OCCCO2)C(=O)C(=O)NCC(=O)N[C@H](C(=O)N(C)C)c1ccccc1 (some centres not stated) | 6 |
| CCCC(NC(=O)[C@@H]1C[C@@H]2CN1C(=O)[C@H](C1CCCCC1)NC(=O)Nc1cccc(c1)OCCCO2)C(=O)C(=O)NCC(=O)N[C@H](C(=O)N(C)C)c1ccccc1 (some centres not stated) | 1600 |
| CCCC(NC(=O)[C@@H]1C[C@@H]2CN1C(=O)[C@H](C(C)(C)C)NC(=O)c1cccc(c1)OCCCCO2)C(=O)C(=O)NCC(=O)N[C@H](C(=O)N(C)C)c1ccccc1 (some centres not stated) | 210 |
| CCCC(NC(=O)[C@@H]1C[C@@H]2CN1C(=O)[C@H](C1CCCCC1)NC(=O)Cc1cccc(c1)OCCCO2)C(=O)C(=O)NCC(=O)N[C@H](C(=O)N(C)C)c1ccccc1 (some centres not stated) | 8 |
| CCCC(NC(=O)[C@@H]1C[C@@H]2CN1C(=O)[C@H]([C@H]1CC[C@@H](C(=O)O)CC1)NC(=O)Cc1cccc(c1)OCCCO2)C(=O)C(=O)NCC(=O)N[C@H](C(=O)N(C)C)c1ccccc1 (some centres not stated) | 30 |
